Twelve molecules from PubChem BioAssay (NCI) can be followed below.

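Protocol summary: plate cells (96-well), add compound at 5 concentrations, incubate 48 h, interpolate endpoints linearly. Here, GI50 denotes the concentration required for 50% inhibition of growth. TGI: concentration producing complete growth inhibition.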

Common to all, as to assay: NCI-60 cell line screen, 48 h
For experiment [1], the system named is HCT-116 colon.
Experiment [2] concerns SF-295 CNS.
For experiment [3], the system named is HT29 colon.
For experiment [4], the system named is U251 CNS.
Experiment [5] relates to MALME-3M melanoma.
The subject of experiment [6] is T-47D breast.
Experiment [7] relates to ACHN renal.
Experiment [8] concerns SK-MEL-28 melanoma.
The test system of experiment [9] is BT-549 breast.
Experiment [10] has as its system A498 renal.

For the molecule `C=CCNC1=C2C[C@@H](C)C[C@@H](OC)[C@H](OC(=O)CCCCN)[C@H](C)/C=C(\C)[C@@H](OC(N)=O)[C@H](OC)/C=C\C=C(/C)C(=O)NC(=CC1=O)C2=O`, the TGI in experiment [1] stood at 28 µM; in [2], 29.9 µM; in [3], 14.8 µM; in experiment [4], 22.8 µM; in [5], 19.6 µM; in experiment [6] it was 29.9 µM. Moreover, the TGI in experiment [7] was determined as 34 µM; in experiment [8] it was 36.9 µM; in [9], 33.4 µM; in [10], 25.9 µM.

For the molecule `CC(C)C1OC23CCCCC2C(C#N)(C#N)C1(C#N)C(=N)O3` (centres undefined), the TGI was 39.8 µM in [1]; above 100 µM in [2]; 43.8 µM in experiment [3]; 63.9 µM in [4]; 39.6 µM in experiment [5]; 71.7 µM in experiment [6]. The TGI in [7] was above 100 µM; in experiment [8] it was 87.3 µM; in [9], 39.8 µM; in [10] it was 60 µM.

`Cc1cccc(-c2nc3ccc([N+](=O)[O-])cc3c(=O)o2)c1`: the TGI in experiment [1], in experiment [2], in [3], in [4], in experiment [5] and in experiment [6] was above 100 µM each time. In addition, the TGI in experiment [7], in experiment [8], in [9] and in experiment [10] was above 100 µM in each case.

Take `CCOC(=O)C1=CC(C)(C(=O)OCC)Nc2c(nc(OC)n(C)c2=O)N1` (centres undefined): the TGI in experiment [1], in experiment [2], in [3], in experiment [4], in [5] and in experiment [6] was above 10 µM throughout. The TGI in experiment [7], in experiment [8], in experiment [9] and in experiment [10] was above 10 µM in each case.

For the molecule `CC(=O)OCc1cc(CCC(=O)NCCNc2c3ccccc3nc3ccccc23)cc(COC(C)=O)c1O[Si](C)(C)C(C)(C)C`, the TGI in experiment [1] is 31.1 µM; in experiment [2], 11.7 µM; in experiment [3], 7.38 µM; in experiment [4], 19.7 µM; in [5], 25.6 µM; in experiment [6], 5.73 µM. The TGI worked out at 30.6 µM in experiment [7], 18.2 µM in experiment [8], 34.2 µM in [9] and 6.1 µM in experiment [10].

With `O=c1[nH]c(-c2ccc3ccccc3c2)nc2ccccc12`, the TGI in [1], in experiment [2], in experiment [3], in experiment [4], in experiment [5] and in [6] was above 100 µM each time. The TGI is 80.2 µM in experiment [7], above 100 µM in experiment [8], above 100 µM in [9] and above 100 µM in [10].

On to `Cc1nc(N)sc1-c1ccnc(Nc2ccc(N3CCOCC3)cc2)n1`, for which the GI50 is 1.52 µM in [1]; 1.2 µM in experiment [2]; 2.11 µM in experiment [3]; 2.36 µM in experiment [4]; 2.92 µM in [6]; 0.8 µM in experiment [7]. In addition, the GI50 in experiment [8] was 4.22 µM; in [9], 1.56 µM; in experiment [10], 0.731 µM. Besides, the TGI in experiment [1] was above 100 µM; in experiment [2], 74.4 µM; in [3] it was above 100 µM; in experiment [4], above 100 µM; in [5], above 65 µM; in [6], above 100 µM. Also, the TGI in experiment [7] is above 100 µM; in experiment [8] it was above 100 µM; in experiment [9] it was above 100 µM; in [10], 2.07 µM.

For `COc1ccc2nc3ccc(OC)cc3c(S(=O)CCCl)c2c1` (centres undefined), the TGI in experiment [1] was 3.39 µM; in experiment [2] it was 45.2 µM; in [3], 4.39 µM; in experiment [4], above 52.2 µM; in [5], 3.57 µM; in experiment [6], 5.62 µM. Moreover, the TGI is 3.62 µM in experiment [7], 12.4 µM in [8], 30.3 µM in experiment [9] and 34 µM in [10].

In the case of `Cc1nc2ccccc2c(=O)n1NC(=O)c1ccc(CS)cc1`, the TGI was 16.9 µM in [1]; above 100 µM in experiment [2]; above 100 µM in experiment [3]; 23.3 µM in experiment [4]; 69.9 µM in experiment [5]; 87.6 µM in [6]. The TGI worked out at 27 µM in experiment [7], 28.8 µM in experiment [8], 46.3 µM in experiment [9] and 40.8 µM in experiment [10].

In the case of `COc1nc(C(=O)NNC(=O)c2nc(OC)c3ccccc3c2-c2ccccc2)c(-c2ccccc2)c2ccccc12`, the TGI in [1], in experiment [2], in experiment [3], in experiment [4], in experiment [5] and in experiment [6] was above 100 µM throughout. For the same molecule, the TGI in experiment [7], in [8], in experiment [9] and in experiment [10] was above 100 µM in each case.

With `CCOC(=O)C1=C(C)N(C)C23OC4(C(=O)OC)CC2c2ccccc2C1N3C4=O` (centres undefined), the TGI in experiment [1], in experiment [2], in [3], in experiment [4], in experiment [5] and in [6] was above 100 µM each time. Moreover, the TGI in experiment [7], in experiment [8], in experiment [9] and in experiment [10] was above 100 µM in each case.

For the molecule `O=C(O)/C=N\Nc1nc2ccccc2[nH]1`, the TGI in experiment [1], in experiment [2], in experiment [3], in experiment [4], in experiment [5] and in experiment [6] was above 100 µM each time. Further, the TGI in experiment [7], in [8], in experiment [9] and in [10] was above 100 µM each time.
